In patent US6958352B2, “Compounds for inhibiting insulin secretion and methods related thereto” (SmithKline Beecham Corporation, priority 2002, dated 2005):
Read-outs that look alike come from different tables or passages of the source.

Target: T1, mitochondrial calcium/sodium antiporter (Rattus norvegicus, UniProt Q6AXS0)
T1 sequence (Q6AXS0 1-585): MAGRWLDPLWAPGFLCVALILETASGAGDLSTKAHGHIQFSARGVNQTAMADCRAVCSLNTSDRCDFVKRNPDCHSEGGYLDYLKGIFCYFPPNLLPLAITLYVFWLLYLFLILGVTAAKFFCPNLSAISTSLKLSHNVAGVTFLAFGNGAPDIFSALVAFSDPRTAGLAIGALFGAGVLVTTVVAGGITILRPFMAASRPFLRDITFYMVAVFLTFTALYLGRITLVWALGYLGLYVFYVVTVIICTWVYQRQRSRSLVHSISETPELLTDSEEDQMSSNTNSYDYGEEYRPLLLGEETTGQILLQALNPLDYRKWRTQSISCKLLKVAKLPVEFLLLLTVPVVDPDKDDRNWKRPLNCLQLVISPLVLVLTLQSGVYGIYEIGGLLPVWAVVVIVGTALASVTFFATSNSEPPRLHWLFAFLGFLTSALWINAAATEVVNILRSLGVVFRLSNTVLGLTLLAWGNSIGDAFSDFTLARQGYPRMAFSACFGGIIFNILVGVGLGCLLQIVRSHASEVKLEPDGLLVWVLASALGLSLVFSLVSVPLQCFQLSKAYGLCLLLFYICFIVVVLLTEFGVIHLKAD
Assay: Inhibition of mitochondrial calcium/sodium antiporter activity (NaCl-induced mitochondrial calcium efflux, calcium green 5N fluorescence)
Format: cell-based
Details: digitonin-permeabilized INS-1 cells, 20 mM NaCl
Experimental: INS-1 rat insulinoma cells (see Example 16) were harvested by trypsinization, washed and resuspended at 10×10^6 cells/ml in assay buffer (250 mM sucrose, 10 mM HEPES, 2.5 mM K2HPO4, 5 mM succinate, pH 7.4) containing 0.007% digitonin, 60 μM CaCl2 and 0.05 μM calcium green 5N (Molecular Probes, Inc., Eugene, Oreg.). After a five-minute calcium loading incubation, ruthenium red (1 μM; Sigma, St. Louis, Mo.) was added to block further calcium uptake by mitochondria. Cell suspensions were dispensed into 96-well plates (100 μl per well, 1×10^6 cells per well) and candidate agents (i.e., candidate mitochondrial calcium/sodium antiporter inhibitors) were added to some sets of triplicate wells at concentrations of 1, 10 or 100 μM, while other sets of wells provided appropriate control conditions (e.g., buffer and vehicle controls). Baseline fluorescence measurements were made using a multiwell plate fluorimeter (F-MAX™, Molecular Devices Corp., Sunnyvale, Calif.; or PolarStar™, BMG Labtechnologies, Inc., Durham, N.C.) according to the manufacturer's instructions. Calcium efflux from mitochondria was then induced by adding NaCl to all wells to achieve a final concentration of 20 mM, and the rate of change in fluorescence in each well was monitored […] for two minutes and quantified using software included with the plate reader.

[1] = Table 2, preferred compounds, read-out: IC50 ≦ 10 μM
[2] = Table 3, more preferred compounds, read-out: IC50 ≦ 1 μM

Row | Compound | IC50 [1] | IC50 [2]
1 | COc1ccc(C(=O)NCCSC(c2cc(Cl)ccc2N)c2ccccc2Cl)cc1OC (stereo not drawn) [Compound 16d] | ≤ 10 µM | ≤ 1 µM
2 | Nc1ccc(Br)cc1C(CSCc1nc2ccccc2[nH]1)c1ccccc1F (stereo not drawn) [Compound 37a] | ≤ 10 µM | –
3 | Nc1ccc(Cl)cc1C(SCC(=O)NC1CC1)c1ccccc1Cl (stereo not drawn) [Compound 13r] | ≤ 10 µM | ≤ 1 µM
4 | COc1ccc(S(=O)(=O)N2CCC(CSC(c3cc(Cl)ccc3N)C3CCCCC3)CC2)cc1OC (stereo not drawn) [Compound 40] | – | ≤ 1 µM
5 | Cc1ccc(C)c(C(SCc2nc(C)no2)c2cc(Cl)ccc2N)c1 (stereo not drawn) [Compound 14m] | ≤ 10 µM | –
6 | COC(=O)C(c1ccccc1)c1ccccc1[N+](=O)[O-] (stereo not drawn) [Compound 25c] | ≤ 10 µM | –
7 | Nc1ccc(Cl)cc1C(SCCNC(=O)c1cn[nH]c1)C1CCCCC1 (stereo not drawn) [Compound 16v] | ≤ 10 µM | –
8 | CC(=O)NCCNC(=O)CSC(c1cc(Cl)ccc1N)c1ccccc1Cl (stereo not drawn) [Compound 13g] | ≤ 10 µM | ≤ 1 µM
9 | Nc1ccc(Cl)cc1C(SCCNS(=O)(=O)c1ccc(OC(F)(F)F)cc1)c1ccccc1Cl (stereo not drawn) [Compound 18d] | ≤ 10 µM | –
10 | COc1ccc(C(=O)NCCSC(c2ccccc2N)C2CCCCC2)cc1OC (stereo not drawn) [Compound 16ae] | – | ≤ 1 µM
11 | COC(=O)CSC(c1ccccc1C)c1cc(Cl)ccc1N (stereo not drawn) [Compound 11aa] | ≤ 10 µM | ≤ 1 µM
12 | O=C(CSC(c1ccccc1)c1cc(Cl)ccc1O)N1CCCCC1 (stereo not drawn) [Compound 13ai] | ≤ 10 µM | –
13 | Nc1ccc(Cl)cc1C(SCCNC(=O)c1ccccc1)c1ccccc1Cl (stereo not drawn) [Compound 16a] | ≤ 10 µM | ≤ 1 µM
14 | Nc1ccc(Cl)cc1C(SCCNC(=O)c1ccc(S(N)(=O)=O)cc1)C1CCCCC1 (stereo not drawn) [Compound 16y] | ≤ 10 µM | –
15 | Nc1ccc(Cl)cc1C(SCC(=O)N1CCCCC1)c1ccccc1Cl (stereo not drawn) [Compound 13d] | ≤ 10 µM | ≤ 1 µM
16 | COC(=O)CSC(c1ccccc1)c1cc(Cl)ccc1N (stereo not drawn) [Compound 11x] | ≤ 10 µM | –
17 | COc1ccc(NC(=O)NCCSC(c2cc(Cl)ccc2N)C2CCCCC2)cc1OC (stereo not drawn) [Compound 17j] | – | ≤ 1 µM
18 | CNCCSCC(c1cc(Cl)ccc1N)c1ccccc1F (stereo not drawn) [Compound 35f] | ≤ 10 µM | –
19 | O=C(CSC(c1cc(Cl)ccc1O)c1ccccc1Cl)N1CCCCC1 (stereo not drawn) [Compound 13ag] | ≤ 10 µM | –
20 | COC(=O)CSCC(c1cc(Cl)ccc1N)c1ccccc1Cl (stereo not drawn) [Compound 20a] | ≤ 10 µM | –
21 | COC(=O)CCSC(c1cc(Cl)ccc1N)c1ccccc1Cl (stereo not drawn) [Compound 15e] | ≤ 10 µM | ≤ 1 µM
22 | Nc1ccc(Cl)cc1C(SCCNC(=O)COc1ccccc1)c1ccccc1Cl (stereo not drawn) [Compound 16l] | ≤ 10 µM | ≤ 1 µM
23 | COc1ccc(C(=O)NCCSC(c2cc(Cl)ccc2N)C(C)C)cc1OC (stereo not drawn) [Compound 16z] | – | ≤ 1 µM

Row | Compound | IC50 [1] | IC50 [2]
24 | Nc1ccc(Cl)cc1C(SCCCO)c1ccccc1Cl (stereo not drawn) [Compound 15k] | ≤ 10 µM | ≤ 1 µM
25 | Cc1ccc(C)c(C(SCc2nc(C)no2)c2cc(Cl)ccc2NC(=O)C(F)(F)F)c1 (stereo not drawn) [Compound 14ma] | ≤ 10 µM | –
26 | Nc1ccc(Cl)cc1C(SCCNC(=O)Nc1cccc(F)c1)c1ccccc1Cl (stereo not drawn) [Compound 17a] | ≤ 10 µM | –
27 | CCCCCCNC(=O)CSC(c1cc(Cl)ccc1N)c1ccccc1Cl (stereo not drawn) [Compound 13l] | ≤ 10 µM | ≤ 1 µM
28 | CS(=O)(=O)c1ccc(C(=O)NCCSC(c2cc(Cl)ccc2N)C2CCCCC2)cc1 (stereo not drawn) [Compound 16x] | – | ≤ 1 µM
29 | Nc1ccc(Cl)cc1C(SCCO)c1ccccc1Cl (stereo not drawn) [Compound 15d] | ≤ 10 µM | ≤ 1 µM
30 | Cc1noc(CSC(c2cc(Cl)ccc2N)c2cccc(C)c2C)n1 (stereo not drawn) [Compound 14k] | ≤ 10 µM | ≤ 1 µM
31 | Cc1noc(CSC(c2cc(Cl)ccc2N)c2cccn2C)n1 (stereo not drawn) [Compound 14h] | ≤ 10 µM | ≤ 1 µM
32 | COc1ccc(NC(=S)NCCSC(c2cc(Cl)ccc2N)C2CCCCC2)c(OC)c1 (stereo not drawn) [Compound 17k] | – | ≤ 1 µM
33 | NC(=O)CSCC(c1ccccc1)c1cc(Cl)ccc1N (stereo not drawn) [Compound 21d] | ≤ 10 µM | ≤ 1 µM
34 | Nc1ccc(Cl)cc1C(SCCNC(=O)Nc1cc(F)ccc1F)c1ccccc1Cl (stereo not drawn) [Compound 17d] | ≤ 10 µM | –
35 | COC(=O)CSC(CC(C)C)c1cc(Cl)ccc1N (stereo not drawn) [Compound 11am] | ≤ 10 µM | –
36 | Cc1cc(C)cc(C(SCc2nc(C)no2)c2cc(Cl)ccc2N)c1 (stereo not drawn) [Compound 14d] | ≤ 10 µM | –
37 | COC(=O)CSCC(c1cc(Cl)ccc1N)c1ccccc1F (stereo not drawn) [Compound 20b] | ≤ 10 µM | ≤ 1 µM
38 | COC(=O)CSC(c1cccc(C)c1)c1cc(Cl)ccc1N (stereo not drawn) [Compound 11i] | ≤ 10 µM | –
39 | COC(=O)CSC(c1nc2ccccc2s1)c1cc(Cl)ccc1N (stereo not drawn) [Compound 11f] | ≤ 10 µM | –
40 | CNC(=O)CSCC(c1cc(Cl)ccc1N)c1ccccc1Cl (stereo not drawn) [Compound 21e] | ≤ 10 µM | ≤ 1 µM
41 | COc1ccc(S(=O)(=O)NCCSC(c2cc(Cl)ccc2N)C2CCCCC2)cc1OC (stereo not drawn) [Compound 18f] | – | ≤ 1 µM
42 | Cc1cccc(C(SCc2nc(C)no2)c2cc(Cl)ccc2N)c1 (stereo not drawn) [Compound 14i] | ≤ 10 µM | –
43 | Cc1noc(CSC(c2ccccc2)c2cc([N+](=O)[O-])ccc2N)n1 (stereo not drawn) [Compound 14t] | ≤ 10 µM | –
44 | Cc1noc(CSC(c2ccc(C)c(C)c2)c2cc(Cl)ccc2N)n1 (stereo not drawn) [Compound 14l] | ≤ 10 µM | –
45 | COc1ccc(CC(=O)NCCSC(c2cc(Cl)ccc2N)c2ccccc2Cl)cc1OC (stereo not drawn) [Compound 16b] | ≤ 10 µM | ≤ 1 µM
46 | COC(=O)CSC(c1cc(Cl)ccc1N)C1CCCCC1 (stereo not drawn) [Compound 11ak] | – | ≤ 1 µM

Row | Compound | IC50 [1] | IC50 [2]
47 | COc1cccc(C(=O)NCCSC(c2cc(Cl)ccc2N)C2CCCCC2)c1 (stereo not drawn) [Compound 16r] | – | ≤ 1 µM
48 | COC(=O)CSC(c1cc(Cl)ccc1N)c1cccn1C (stereo not drawn) [Compound 11h] | ≤ 10 µM | ≤ 1 µM
49 | Nc1ccc(Cl)cc1C(Sc1ccccn1)c1ccccc1Cl (stereo not drawn) [Compound 15f] | ≤ 10 µM | ≤ 1 µM
50 | COc1ccc(NC(=O)NCCSC(c2cc(Cl)ccc2N)C2CCCCC2)c(OC)c1 (stereo not drawn) [Compound 17g] | – | ≤ 1 µM
51 | Nc1ccc(Cl)cc1C(SCC(=O)NCCc1cc(I)c(O)c(I)c1)c1ccccc1Cl (stereo not drawn) [Compound 13u] | ≤ 10 µM | ≤ 1 µM
52 | Nc1ccc(Cl)cc1C(SCCNC(=O)C1CCC1)c1ccccc1Cl (stereo not drawn) [Compound 16h] | ≤ 10 µM | ≤ 1 µM
53 | Nc1ccc(Cl)cc1C(SCCNC(=O)c1ccc2c(c1)OCO2)C1CCCCC1 (stereo not drawn) [Compound 16w] | – | ≤ 1 µM
54 | Nc1ccc(Cl)cc1C(SCC(F)(F)F)c1ccccc1Cl (stereo not drawn) [Compound 15i] | ≤ 10 µM | ≤ 1 µM
55 | CS(=O)(=O)NCCSC(c1cc(Cl)ccc1N)c1ccccc1Cl (stereo not drawn) [Compound 18e] | ≤ 10 µM | ≤ 1 µM
56 | CN(C)CCCNC(=O)CSC(c1cc(Cl)ccc1N)c1ccccc1Cl (stereo not drawn) [Compound 13q] | ≤ 10 µM | –
57 | COC(=O)C(c1ccccc1[N+](=O)[O-])c1cccc2ccccc12 (stereo not drawn) [Compound 25d] | ≤ 10 µM | ≤ 1 µM
58 | COC(=O)CSC(c1cc(Cl)ccc1N)c1ccccc1Cl (stereo not drawn) [Compound 11s] | ≤ 10 µM | ≤ 1 µM
59 | Nc1ccc(Cl)cc1C(SCC(=O)NCC(c1ccccc1)c1ccccc1)c1ccccc1Cl (stereo not drawn) [Compound 13i] | ≤ 10 µM | ≤ 1 µM
60 | Cc1noc(CSCC(c2ccccc2)c2cc(Cl)ccc2N)n1 (stereo not drawn) [Compound 22d] | ≤ 10 µM | ≤ 1 µM
61 | Cc1noc(CSCC(c2cc(Br)ccc2N)c2ccccc2F)n1 (stereo not drawn) [Compound 22c] | ≤ 10 µM | –
62 | C#CCNC(=O)CSC(c1cc(Cl)ccc1N)c1ccccc1Cl (stereo not drawn) [Compound 13o] | ≤ 10 µM | ≤ 1 µM
63 | COC(=O)CN(C)CC(c1cccc(Cl)c1)c1ccccc1[N+](=O)[O-] (stereo not drawn) [Compound 28a] | ≤ 10 µM | –
64 | Nc1ccc(Cl)cc1C(SCCNC(=O)C1CCCCC1)c1ccccc1Cl (stereo not drawn) [Compound 16i] | ≤ 10 µM | ≤ 1 µM
65 | Cc1noc(CSCC(c2cc(Cl)ccc2N)c2ccccc2Cl)n1 (stereo not drawn) [Compound 22a] | ≤ 10 µM | ≤ 1 µM
66 | Nc1ccc(Cl)cc1C(SCC(=O)NCCc1ccc(O)c(I)c1)c1ccccc1Cl (stereo not drawn) [Compound 13t] | ≤ 10 µM | –
67 | Cc1noc(CSCC(c2cc(Cl)ccc2N)c2ccccc2F)n1 (stereo not drawn) [Compound 22b] | ≤ 10 µM | ≤ 1 µM
68 | COc1cc(C(=O)N2CCC(CSC(c3cc(Cl)ccc3N)C3CCCCC3)CC2)cc(OC)c1OC (stereo not drawn) [Compound 41a] | ≤ 10 µM | –
